# Reference: patent US20210254056A1, “IDENTIFICATION AND TARGETED MODULATION OF GENE SIGNALING NETWORKS” (CAMP4 THERAPEUTICS CORPORATION, priority 2017, published 2021)
# Tested on: hepatocytes
# Assay: RNA-seq of hepatocytes treated with Phase III failure compounds
# Procedure: RNA-seq was performed to determine the effects of the compounds on hepatocytes.
# Significance was determined by the criteria of FPKM≥0.5, a log 2(fold-change)≥1, and a […].
compound,measurement,setting,value
COc1cc2c(Oc3ccc4[nH]c(C)cc4c3F)ncnc2cc1OCCCN1CCCC1 [Cediranib],"RNA-seq results, CYP2B6 expression",,−0.46
same,"RNA-seq results, CYP2C19 expression",,−0.80
same,"RNA-seq results, CYP2D6 expression",,−0.12
same,"RNA-seq results, CYP3A4 expression",,−0.75
same,"RNA-seq results, CYP7B1 expression",,−0.93
same,"RNA-seq results, CYP39A1 expression",,−0.61
same,RNA-seq results: CYP2B6 expression,,0.41
same,RNA-seq results: CYP2C19 expression,,−1
same,RNA-seq results: CYP2D6 expression,,0.79
same,RNA-seq results: CYP3A4 expression,,1.58
same,RNA-seq results: CYP7B1 expression,,−0.02
same,RNA-seq results: CYP39A1 expression,,−0.24
same,significant modulation of expression of disease genes,"RNA-seq, q≤0.05, hepatocytes, genes in the value or listed in the block",significantly (q≤0.05) modulate expression
same,effect on disease gene expression,"RNA-seq, hepatocytes",effect on expression of too many disease genes
same,genes down-regulated by the compound,"RNA-seq, hepatocytes, gene named in the value",down-regulate Factor V levels
same,RNA-seq results: A1BG expression,"gene A1BG, hepatocytes",0.15
same,RNA-seq results: AGTR1 expression,"gene AGTR1, hepatocytes",−0.32
same,RNA-seq results: AGXT expression,"gene AGXT, hepatocytes",−0.23
same,RNA-seq results: AHI1 expression,"gene AHI1, hepatocytes",−0.17
same,RNA-seq results: AMPD3 expression,"gene AMPD3, hepatocytes",−0.52
same,RNA-seq results: AMT expression,"gene AMT, hepatocytes",−0.23
same,RNA-seq results: ANGPTL3 expression,"gene ANGPTL3, hepatocytes",−1.40
same,RNA-seq results: ANKS4B expression,"gene ANKS4B, hepatocytes",−0.31
same,RNA-seq results: ANKS6 expression,"gene ANKS6, hepatocytes",0.09
same,RNA-seq results: ANPEP expression,"gene ANPEP, hepatocytes",−0.85
same,RNA-seq results: AOC2 expression,"gene AOC2, hepatocytes",−0.47
same,RNA-seq results: APOA2 expression,"gene APOA2, hepatocytes",0.16
same,RNA-seq results: APOA5 expression,"gene APOA5, hepatocytes",−0.08
same,RNA-seq results: APOB expression,"gene APOB, hepatocytes",−0.99
same,RNA-seq results: COG5 expression,"gene COG5, hepatocytes",−0.45
same,RNA-seq results: COG6 expression,"gene COG6, hepatocytes",−0.46
same,RNA-seq results: COL1A1 expression,"gene COL1A1, hepatocytes",−0.72
same,RNA-seq results: COX6A1 expression,"gene COX6A1, hepatocytes",0.16
same,RNA-seq results: CP expression,"gene CP, hepatocytes",0.53
same,RNA-seq results: CPS1 expression,"gene CPS1, hepatocytes",−0.28
same,RNA-seq results: CPT1A expression,"gene CPT1A, hepatocytes",0.16
same,RNA-seq results: CPT2 expression,"gene CPT2, hepatocytes",1.26
same,RNA-seq results: CROT expression,"gene CROT, hepatocytes",0.55
same,RNA-seq results: CSPP1 expression,"gene CSPP1, hepatocytes",−0.7
same,RNA-seq results: CTC1 expression,"gene CTC1, hepatocytes",−0.9
same,RNA-seq results: CTDSP2 expression,"gene CTDSP2, hepatocytes",−0.18
same,RNA-seq results: CTH expression,"gene CTH, hepatocytes",0.66
same,RNA-seq results: CTNS expression,"gene CTNS, hepatocytes",−1.18
same,RNA-seq results: CTSF expression,"gene CTSF, hepatocytes",0.6
same,RNA-seq results: CTSK expression,"gene CTSK, hepatocytes",0.02
same,RNA-seq results: CYB5A expression,"gene CYB5A, hepatocytes",−0.16
same,RNA-seq results: CYB5R3 expression,"gene CYB5R3, hepatocytes",0.14
same,RNA-seq results: CYP27A1 expression,"gene CYP27A1, hepatocytes",0.51
same,RNA-seq results: DAO expression,"gene DAO, hepatocytes",0.23
same,RNA-seq results: DBT expression,"gene DBT, hepatocytes",−0.33
same,RNA-seq results: DCDC2 expression,"gene DCDC2, hepatocytes",−1.25
same,RNA-seq results: DCXR expression,"gene DCXR, hepatocytes",0.96
same,RNA-seq results: FABP1 expression,"gene FABP1, hepatocytes",0.4
same,RNA-seq results: FADD expression,"gene FADD, hepatocytes",−0.23
same,RNA-seq results: FAM111A expression,"gene FAM111A, hepatocytes",−0.68
same,RNA-seq results: FAM111B expression,"gene FAM111B, hepatocytes",−0.13
same,RNA-seq results: FAN1 expression,"gene FAN1, hepatocytes",−1.14
same,RNA-seq results: FARS2 expression,"gene FARS2, hepatocytes",−0.84
same,RNA-seq results: FASLG expression,"gene FASLG, hepatocytes",−1.48
same,RNA-seq results: FGA expression,"gene FGA, hepatocytes",0.87
same,RNA-seq results: FGD1 expression,"gene FGD1, hepatocytes",−0.22
same,RNA-seq results: FGFR2 expression,"gene FGFR2, hepatocytes",−0.16
same,RNA-seq results: FIG4 expression,"gene FIG4, hepatocytes",−0.45
same,RNA-seq results: FIS1 expression,"gene FIS1, hepatocytes",−0.27
same,RNA-seq results: FTCD expression,"gene FTCD, hepatocytes",−0.68
same,RNA-seq results: FTH1 expression,"gene FTH1, hepatocytes",−0.17
same,RNA-seq results: FUCA1 expression,"gene FUCA1, hepatocytes",1.44
same,RNA-seq results: FXN expression,"gene FXN, hepatocytes",−1.56
same,RNA-seq results: G6PC3 expression,"gene G6PC3, hepatocytes",−0.89
same,RNA-seq results: G6PC expression,"gene G6PC, hepatocytes",0.32
same,RNA-seq results: G6PD expression,"gene G6PD, hepatocytes",1.51
same,RNA-seq results: GALK1 expression,"gene GALK1, hepatocytes",−0.27
same,RNA-seq results: GALK2 expression,"gene GALK2, hepatocytes",0.04
same,RNA-seq results: GALT expression,"gene GALT, hepatocytes",−0.02
same,RNA-seq results: GATA6 expression,"gene GATA6, hepatocytes",−0.1
same,RNA-seq results: GATM expression,"gene GATM, hepatocytes",−0.66
same,RNA-seq results: GBA expression,"gene GBA, hepatocytes",−0.06
same,RNA-seq results: GBE1 expression,"gene GBE1, hepatocytes",−0.62
same,RNA-seq results: GCH1 expression,"gene GCH1, hepatocytes",1.49
same,RNA-seq results: GCKR expression,"gene GCKR, hepatocytes",−1.15
same,RNA-seq results: GCLC expression,"gene GCLC, hepatocytes",0.3
same,RNA-seq results: GOSH expression,"gene GOSH, hepatocytes",−0.39
same,RNA-seq results: RRM2B,"gene RRM2B, hepatocytes",−0.75
same,RNA-seq results: RSAD1,"gene RSAD1, hepatocytes",0.13
same,RNA-seq results: SAMHD1,"gene SAMHD1, hepatocytes",−1.05
same,RNA-seq results: SC5D,"gene SC5D, hepatocytes",0.51
same,RNA-seq results: SCARB1,"gene SCARB1, hepatocytes",−0.30
same,RNA-seq results: SCN9A,"gene SCN9A, hepatocytes",−0.39
same,RNA-seq results: SDCCAG8,"gene SDCCAG8, hepatocytes",−0.30
same,RNA-seq results: SEPN1,"gene SEPN1, hepatocytes",−0.85
same,RNA-seq results: SERAC1,"gene SERAC1, hepatocytes",−0.14
same,RNA-seq results: SERPINA1,"gene SERPINA1, hepatocytes",−0.19
same,RNA-seq results: SERPING1,"gene SERPING1, hepatocytes",−0.29
same,RNA-seq results: SERPINI1,"gene SERPINI1, hepatocytes",−0.73
same,RNA-seq results: SETBP1,"gene SETBP1, hepatocytes",−0.30
same,RNA-seq results: SFXN4,"gene SFXN4, hepatocytes",−0.01
same,RNA-seq results: SLC10A1,"gene SLC10A1, hepatocytes",−0.88
same,RNA-seq results: SLC10A3,"gene SLC10A3, hepatocytes",−0.50
same,RNA-seq results: SLC10A5,"gene SLC10A5, hepatocytes",−0.90
same,RNA-seq results: SLC10A7,"gene SLC10A7, hepatocytes",−0.52
same,RNA-seq results: SLC11A2,"gene SLC11A2, hepatocytes",−0.59
same,RNA-seq results: SLC19A1,"gene SLC19A1, hepatocytes",−0.45
same,RNA-seq results: SLC19A2,"gene SLC19A2, hepatocytes",−0.03
same,RNA-seq results: SLC19A3,"gene SLC19A3, hepatocytes",−0.68
same,RNA-seq results: SLC22A1,"gene SLC22A1, hepatocytes",−0.13
same,RNA-seq results: SLC22A5,"gene SLC22A5, hepatocytes",0.06
same,RNA-seq results: SLC25A1,"gene SLC25A1, hepatocytes",−0.09
same,RNA-seq results: SLC25A10,"gene SLC25A10, hepatocytes",−0.40
same,RNA-seq results: SLC25A12,"gene SLC25A12, hepatocytes",−0.41
same,RNA-seq results: SLC25A13,"gene SLC25A13, hepatocytes",−0.29
same,RNA-seq results: SLC25A15,"gene SLC25A15, hepatocytes",−0.47
same,RNA-seq results: SLC25A19,"gene SLC25A19, hepatocytes",0.26
same,RNA-seq results: SLC25A20,"gene SLC25A20, hepatocytes",−0.32
same,RNA-seq results: SLC25A29,"gene SLC25A29, hepatocytes",−0.11
same,RNA-seq results: SLC25A32,"gene SLC25A32, hepatocytes",−0.13
Cc1ccc2c(=O)c3cccc(CC(=O)O)c3oc2c1C [DMXAA],significant changes in gene expression,"RNA-seq of Table 36, FPKM≥0.5, log 2(fold-change)≥1, q-value≤0.05",not observed to cause any significant changes in gene expression
same,significant modulation of expression of any of the genes analyzed,"RNA-seq, p≤0.05, hepatocytes",not observed to significantly modulate expression
same,effect on disease gene expression,"RNA-seq, hepatocytes",no effect on any disease gene
